Results published in ChEMBL document CHEMBL5608163, “Structure modification of anoplin for fighting resistant bacteria” (Eur J Med Chem, 2024).
Converted amounts (≈) assume the structure as drawn. Numbered stars: 1 amine (or outer) side, 2 acyl side, 3 side chain; on linkers, the order of the positions; unused ones are H or OH. Square brackets hold non-standard residues; d marks the D form. Peptide text beside a SMILES is read from it. * marks the point of attachment. Gly(N(CH2)2(3-indolyl)) = O=C(O)CNCCc1c[nH]c2ccccc12; Pentadecanoyl = CCCCCCCCCCCCCCC(=O)*; NMeR = CN[C@@H](CCCNC(=N)N)C(=O)O; Tridecanoyl = CCCCCCCCCCCCC(=O)*; X2 = CCC(C)N(CC(=O)[*:2])[*:1]; NMeK = CN[C@@H](CCCCN)C(=O)O; N(iPr)Gly = CC(C)NCC(=O)O; Nonanoyl = CCCCCCCCC(=O)*; Nphe = O=C(O)CNCc1ccccc1; NBuGly = CCCCNCC(=O)O

Tests used:
Erythrocyte = test: Hemolytic activity in mouse RBC; type: toxicity, cell-based
Staphylococcus aureus [1] = test: Antimicrobial activity against Staphylococcus aureus assessed as reduction in microbial growth by broth microdilution method; type: functional
Escherichia coli [2] = test: Antimicrobial activity against Escherichia coli assessed as reduction in microbial growth by broth micro-dilution method; type: functional
[3] = Hemolytic activity in mouse erythrocyte incubated for 1 hr by microplate reader analysis; type: toxicity, cell-based; conditions: erythrocytes
[4] = Hemolytic activity in mouse Red blood cells incubated for 1 hr by microplate reader assay; type: toxicity, cell-based, Erythrocyte; conditions: red blood cells
Bacillus subtilis = test: Antibacterial activity against Bacillus subtilis ATCC 23857 assessed as reduction in bacterial cell growth measured for 18 hrs by Mueller-Hinton broth based two-fold serial dilution method; type: functional
Pseudomonas aeruginosa = test: Antibacterial activity against Pseudomonas aeruginosa ATCC 27853 assessed as reduction in bacterial cell growth measured for 18 hrs by Mueller-Hinton broth based two-fold serial dilution method; type: functional
Staphylococcus aureus [5] = test: Antibacterial activity against Staphylococcus aureus ATCC 25923 assessed as reduction in bacterial cell growth measured for 18 hrs by Mueller-Hinton broth based two-fold serial dilution method; type: functional
Escherichia coli [6] = test: Antibacterial activity against Escherichia coli ATCC 25922 assessed as reduction in bacterial cell growth measured for 18 hrs by Mueller-Hinton broth based two-fold serial dilution method; type: functional
Klebsiella pneumoniae = test: Antibacterial activity against Klebsiella pneumoniae ATCC 700603 assessed as reduction in bacterial cell growth measured for 18 hrs by Mueller-Hinton broth based two-fold serial dilution method; type: functional
Escherichia coli [7] = test: Antibacterial activity against Escherichia coli ATCC 25922 assessed as reduction in bacterial growth measured after 24 hrs by Mueller-Hinton broth based two-fold serial dilution method; type: functional
Staphylococcus aureus [8] = test: Antibacterial activity against Staphylococcus aureus ATCC 25923 assessed as reduction in bacterial growth measured after 24 hrs by Mueller-Hinton broth based two-fold serial dilution method; type: functional

Row | MIC (Staphylococcus aureus [1]) | MIC (Escherichia coli [2]) | MIC (Bacillus subtilis) | MIC (Pseudomonas aeruginosa) | MIC (Staphylococcus aureus [5]) | MIC (Escherichia coli [6]) | MIC (Klebsiella pneumoniae) | Structure (SMILES) | HC10 (Erythrocyte) | HC50 at 1 h [3] | HC50 at 1 h [4] | further results
1 | 50 µM | 25 µM |  |  |  |  |  | CC[C@H](C)[C@H](NC(=O)[C@H](CCCNC(=N)N)NC(=O)[C@H](CCCCN)NC(=O)[C@H](CC(C)C)NC(=O)[C@H](CC(C)C)NC(=O)CNCCc1c[nH]c2ccccc12)C(=O)N[C@@H](CCCCN)C(=O)N[C@H](C(=O)N[C@@H](CC(C)C)C(=O)N[C@@H](CC(C)C)C(N)=O)[C@@H](C)O (H-[Gly(N(CH2)2(3-indolyl))]LLKRIKTLL-NH2) | > 50 µM |  |  | 
2 |  |  | 8 µM (≈ 10.6 µg/mL) | 32 µM (≈ 42.3 µg/mL) | 128 µM (≈ 169 µg/mL) | 128 µM (≈ 169 µg/mL) | > 128 µM | CCCCCCCCC(=O)NCC(=O)N[C@@H](CC(C)C)C(=O)N[C@@H](CC(C)C)C(=O)N[C@@H](CCCCN)C(=O)N(C)[C@@H](CCCNC(=N)N)C(=O)N[C@H](C(=O)N(C)[C@@H](CCCCN)C(=O)N[C@H](C(=O)N[C@@H](CC(C)C)C(=O)N[C@@H](CC(C)C)C(N)=O)[C@@H](C)O)[C@@H](C)CC (Nonanoyl-GLLK[NMeR]I[NMeK]TLL-NH2) |  | > 256 µM | > 256 µM | 
3 | > 100 µM | 50 µM |  |  |  |  |  | CC[C@H](C)[C@H](NC(=O)[C@H](CCCNC(=N)N)NC(=O)[C@H](CCCCN)NC(=O)[C@H](CC(C)C)NC(=O)[C@H](CC(C)C)NC(=O)CNCc1ccccc1)C(=O)N[C@@H](CCCCN)C(=O)N[C@H](C(=O)N[C@@H](CC(C)C)C(=O)N[C@@H](CC(C)C)C(N)=O)[C@@H](C)O (H-[Nphe]LLKRIKTLL-NH2) | > 50 µM |  |  | 
4 |  |  | 8 µM (≈ 11.2 µg/mL) | 16 µM (≈ 22.5 µg/mL) | 16 µM (≈ 22.5 µg/mL) | 16 µM (≈ 22.5 µg/mL) | 32 µM (≈ 45 µg/mL) | CCCCCCCCCCCCCCC(=O)NCC(=O)N[C@@H](CC(C)C)C(=O)N[C@@H](CC(C)C)C(=O)N[C@@H](CCCCN)C(=O)N(C)[C@@H](CCCNC(=N)N)C(=O)N[C@H](C(=O)N(C)[C@@H](CCCCN)C(=O)N[C@H](C(=O)N[C@@H](CC(C)C)C(=O)N[C@@H](CC(C)C)C(N)=O)[C@@H](C)O)[C@@H](C)CC (Pentadecanoyl-GLLK[NMeR]I[NMeK]TLL-NH2) |  | 64 µM | 64 µM | 
5 | > 100 µM | 100 µM |  |  |  |  |  | CCCCNCC(=O)N[C@@H](CC(C)C)C(=O)N[C@@H](CC(C)C)C(=O)N[C@@H](CCCCN)C(=O)N[C@@H](CCCNC(=N)N)C(=O)N[C@H](C(=O)N[C@@H](CCCCN)C(=O)N[C@H](C(=O)N[C@@H](CC(C)C)C(=O)N[C@@H](CC(C)C)C(N)=O)[C@@H](C)O)[C@@H](C)CC (H-[NBuGly]LLKRIKTLL-NH2) | > 50 µM |  |  | 
6 |  |  | 4 µM (≈ 5.51 µg/mL) | 8 µM (≈ 11 µg/mL) | 8 µM (≈ 11 µg/mL) | 8 µM (≈ 11 µg/mL) | 32 µM (≈ 44.1 µg/mL) | CCCCCCCCCCCCC(=O)NCC(=O)N[C@@H](CC(C)C)C(=O)N[C@@H](CC(C)C)C(=O)N[C@@H](CCCCN)C(=O)N(C)[C@@H](CCCNC(=N)N)C(=O)N[C@H](C(=O)N(C)[C@@H](CCCCN)C(=O)N[C@H](C(=O)N[C@@H](CC(C)C)C(=O)N[C@@H](CC(C)C)C(N)=O)[C@@H](C)O)[C@@H](C)CC (Tridecanoyl-GLLK[NMeR]I[NMeK]TLL-NH2) |  | 64 µM | 64 µM | 
7 |  |  |  |  |  |  |  | CC[C@H](C)[C@H](NC(=O)[C@H](CCCNC(=N)N)NC(=O)[C@H](CCCCN)NC(=O)[C@@H](N)CC(C)C)C(=O)N[C@@H](CCCCN)C(=O)N[C@H](C(=O)N[C@@H](CC(C)C)C(=O)N[C@@H](CC(C)C)C(N)=O)[C@@H](C)O (H-LKRIKTLL-NH2) |  |  |  | MIC (Escherichia coli [7]): 31.6 µM (≈ 31 µg/mL); MIC (Staphylococcus aureus [8]): > 31.6 µM
8 |  |  |  |  |  |  |  | CC[C@H](C)[C@H](NC(=O)[C@H](CCCNC(=N)N)NC(=O)[C@H](CCCCN)NC(=O)[C@H](CC(C)C)NC(=O)[C@H](CC(C)C)NC(=O)CN)C(=O)N[C@@H](CCCCN)C(=O)N[C@H](C(N)=O)[C@@H](C)O (H-GLLKRIKT-NH2) |  |  |  | MIC (Escherichia coli [7]): 24.8 µM (≈ 23 µg/mL); MIC (Staphylococcus aureus [8]): > 24.8 µM
9 | > 100 µM | > 100 µM |  |  |  |  |  | CCC(C)NCC(=O)N[C@@H](CC(C)C)C(=O)N[C@@H](CC(C)C)C(=O)N[C@@H](CCCCN)C(=O)N[C@@H](CCCNC(=N)N)C(=O)N[C@H](C(=O)N[C@@H](CCCCN)C(=O)N[C@H](C(=O)N[C@@H](CC(C)C)C(=O)N[C@@H](CC(C)C)C(N)=O)[C@@H](C)O)[C@@H](C)CC (stereo not given in full) (H-[X2]LLKRIKTLL-NH2) | > 50 µM |  |  | 
10 | > 100 µM | > 100 µM |  |  |  |  |  | CC[C@H](C)[C@H](NC(=O)[C@H](CCCNC(=N)N)NC(=O)[C@H](CCCCN)NC(=O)[C@H](CC(C)C)NC(=O)[C@H](CC(C)C)NC(=O)CNC(C)C)C(=O)N[C@@H](CCCCN)C(=O)N[C@H](C(=O)N[C@@H](CC(C)C)C(=O)N[C@@H](CC(C)C)C(N)=O)[C@@H](C)O (H-[N(iPr)Gly]LLKRIKTLL-NH2) | > 50 µM |  |  | 
